pEC50: −log10 of the molar value.
How the values were obtained:
[1] = biological target: Stimulator of interferon genes protein (Homo sapiens, UniProt Q86WV6, R293Q); assay: Agonist activity at STING R293Q mutant (unknown origin) expressed in digitonin -permeabilized HEK293T cells preincubated for 30 mins followed by washout and measured after 5 hrs by Bright-glo luciferase assay; format: cell-based
[2] = biological target: T1, Stimulator of interferon genes protein (Homo sapiens, UniProt Q86WV6); assay: Agonist activity at STING R232 mutant (unknown origin) expressed in digitonin -permeabilized HEK293T cells preincubated for 30 mins followed by washout and measured after 5 hrs by Bright-glo luciferase assay; format: cell-based
Target sequence in this assay (Q86WV6 whole entry, looked up, stated change not applied): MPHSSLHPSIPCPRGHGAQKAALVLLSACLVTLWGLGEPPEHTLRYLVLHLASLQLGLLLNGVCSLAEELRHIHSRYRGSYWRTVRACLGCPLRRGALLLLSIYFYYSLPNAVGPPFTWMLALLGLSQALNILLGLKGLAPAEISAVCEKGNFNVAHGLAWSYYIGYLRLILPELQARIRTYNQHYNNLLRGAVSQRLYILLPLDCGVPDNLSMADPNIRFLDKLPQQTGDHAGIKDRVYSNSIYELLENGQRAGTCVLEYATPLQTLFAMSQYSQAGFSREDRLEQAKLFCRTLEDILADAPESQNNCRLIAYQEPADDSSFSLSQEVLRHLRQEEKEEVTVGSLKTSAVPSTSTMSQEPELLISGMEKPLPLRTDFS

[3] = Agonist activity at STING R232H mutant (unknown origin) expressed in digitonin -permeabilized HEK293T cells preincubated for 30 mins followed by washout and measured after 5 hrs by Bright-glo luciferase assay; format: cell-based; conditions: Homo sapiens, HEK-293T
[4] = tested on: Stimulator of interferon genes protein (Homo sapiens), Q86WV6 [G230A,R293Q]; conditions: filed as agonist
Description: Binding affinity to STING G230A/R293Q mutant (unknown origin) assessed as change in melting temperature by differential scanning fluorimetry analysis

[5] = tested on: Stimulator of interferon genes protein (Homo sapiens), Q86WV6 [UNDEFINED MUTATION]; conditions: filed as agonist
Description: Binding affinity to STING R232 mutant (unknown origin) assessed as change in melting temperature by differential scanning fluorimetry analysis

[6] = biological target: Stimulator of interferon genes protein (Homo sapiens, UniProt Q86WV6, G230A/R293Q); assay: Agonist activity at STING G230A/R293Q mutant (unknown origin) expressed in digitonin -permeabilized HEK293T cells preincubated for 30 mins followed by washout and measured after 5 hrs by Bright-glo luciferase assay; format: cell-based
[7] = biological target: Stimulator of interferon genes protein (Homo sapiens, UniProt Q86WV6, G230A/R293Q/R71H); assay: Agonist activity at STING R71H/G230A/R293Q mutant (unknown origin) expressed in digitonin -permeabilized HEK293T cells preincubated for 30 mins followed by washout and measured after 5 hrs by Bright-glo luciferase assay; format: cell-based
[8] = biological target: T1, Stimulator of interferon genes protein; assay: Agonist activity at wild type STING (unknown origin) expressed in HEK293T cells measured after 7 hrs by Bright-glo luciferase assay; format: cell-based
Target sequence in this assay (Q86WV6 whole entry): as the sequence (Q86WV6 whole entry, looked up, stated change not applied) above

[9] = biological target: T1, Stimulator of interferon genes protein; assay: Agonist activity at wild type STING (unknown origin) expressed in HEK293T cells preincubated for 30 mins followed by washout and measured after 6.5 hrs by Bright-glo luciferase assay; format: cell-based
Target sequence in this assay (Q86WV6 whole entry): as the sequence (Q86WV6 whole entry, looked up, stated change not applied) above

[10] = Induction of cytokine production in human PBMC cells assessed as IFN-alpha level incubated for 60 mins followed by washout and measured after 15 hrs; format: functional, cell-based
[11] = Induction of cytokine production in human PBMC cells assessed as TNF-alpha level incubated for 60 mins followed by washout and measured after 15 hrs; format: functional, cell-based
[12] = Induction of cytokine production in human PBMC cells assessed as IFN-gamma level incubated for 60 mins followed by washout and measured after 15 hrs; format: functional, cell-based
[13] = Stability in mouse plasma assessed as half life at 5 uM measured upto 120 mins by UPLC/MS analysis; format: ADME, cell-free
[14] = Stability in human plasma assessed as half life at 5 uM measured upto 120 mins by UPLC/MS analysis; format: ADME, cell-free

Chain of Stimulator of interferon genes protein (Homo sapiens, UniProt Q86WV6, G230A/R293Q/R71H) (Q86WV6 whole entry R71H/G230A/R293Q): as the sequence (Q86WV6 whole entry, looked up, stated change not applied) above, with R71H, G230A, R293Q counted along it
Chain of Stimulator of interferon genes protein (Homo sapiens, UniProt Q86WV6, G230A/R293Q) (Q86WV6 whole entry G230A/R293Q): as the sequence (Q86WV6 whole entry, looked up, stated change not applied) above, with G230A, R293Q counted along it
Chain of Stimulator of interferon genes protein (Homo sapiens), Q86WV6 [G230A,R293Q] (Q86WV6 whole entry G230A/R293Q): as the sequence (Q86WV6 whole entry, looked up, stated change not applied) above, with G230A, R293Q counted along it
Chain of Stimulator of interferon genes protein (Homo sapiens), Q86WV6 [UNDEFINED MUTATION] (Q86WV6 whole entry, looked up, stated change not applied): as the sequence (Q86WV6 whole entry, looked up, stated change not applied) above
Chain of Stimulator of interferon genes protein (Homo sapiens, UniProt Q86WV6, R293Q) (Q86WV6 whole entry R293Q): as the sequence (Q86WV6 whole entry, looked up, stated change not applied) above, with R293Q counted along it

| Compound | pEC50 [1] | pEC50 [2] | pEC50 [3] | ΔTm [4] [°C] | ΔTm [5] [°C] | pEC50 [6] | pEC50 [7] | pEC50 [8] | pEC50 [9] | further results |
| --- | --- | --- | --- | --- | --- | --- | --- | --- | --- | --- |
| Nc1ncnc2c1ncn2[C@@H]1O[C@@H]2COP(=O)(O)O[C@H]3C[C@H](n4cnc5c(N)ncnc54)O[C@@H]3/C=C/P(=O)(O)O[C@H]2[C@H]1F | 5.18 | 6.12 | < 4.35 | 8.2 | 2.3 | 6.40 | 6.55 | – | – | – |
| Nc1nc2c(ncn2[C@@H]2O[C@@H]3COP(=O)(O)O[C@H]4C[C@H](n5cnc6c(N)ncnc65)O[C@@H]4/C=C/P(=O)(O)O[C@H]3[C@H]2F)c(=O)[nH]1 | 5.38 | 6.15 | 4.59 | 11.9 | 4.8 | 6.54 | 6.46 | – | – | – |
| Nc1nc2c(ncn2[C@H]2C[C@@H]3OP(=O)(O)/C=C/[C@H]4O[C@@H](n5cnc6c(N)ncnc65)C[C@@H]4OP(=O)(O)OC[C@H]3O2)c(=O)[nH]1 | < 4.35 | 4.97 | < 4.35 | 4.5 | 0.9 | 6.41 | 6.62 | – | – | – |
| Nc1ncnc2c1ncn2[C@@H]1O[C@@H]2/C=C/P(=O)(O)O[C@H]3C[C@H](n4cnc5c(N)ncnc54)O[C@@H]3COP(=O)(O)O[C@H]2[C@H]1F | 5.82 | 6.55 | < 4.35 | 8.9 | 2.7 | 6.41 | 6.57 | 4.14 | < 3.70 | – |
| CC(C)(C)C(=O)OCOP1(=O)/C=C/[C@H]2O[C@@H](n3cnc4c(N)ncnc43)[C@H](F)[C@@H]2OP(=O)(OCOC(=O)C(C)(C)C)OC[C@H]2O[C@@H](n3cnc4c(N)ncnc43)[C@H](F)[C@@H]2O1 (stereo in doubt; 11A) | – | – | – | – | – | – | – | 7.22 | 6.89 | – |
| CC(C)(C)C(=O)OCOP1(=O)/C=C/[C@H]2O[C@@H](n3cnc4c(N)ncnc43)[C@H](F)[C@@H]2OP(=O)(OCOC(=O)C(C)(C)C)OC[C@H]2O[C@@H](n3cnc4c(N)ncnc43)[C@H](F)[C@@H]2O1 (stereo in doubt; 11C) | – | – | – | – | – | – | – | 7.92 | 8.00 | pEC50 ([10]; pbmc): 7.22; pEC50 ([11]; pbmc): 7.40; pEC50 ([12]; pbmc): 7.30; half-life at 5 µM [13]: 4 min; half-life at 5 µM [14]: 49 min |
| CC(C)OC(=O)OCOP1(=O)/C=C/[C@H]2O[C@@H](n3cnc4c(N)ncnc43)[C@H](F)[C@@H]2OP(=O)(OCOC(=O)OC(C)C)OC[C@H]2O[C@@H](n3cnc4c(N)ncnc43)[C@H](F)[C@@H]2O1 (stereo in doubt; 12A) | – | – | – | – | – | – | – | 5.02 | 5.10 | – |
| CC(C)OC(=O)OCOP1(=O)/C=C/[C@H]2O[C@@H](n3cnc4c(N)ncnc43)[C@H](F)[C@@H]2OP(=O)(OCOC(=O)OC(C)C)OC[C@H]2O[C@@H](n3cnc4c(N)ncnc43)[C@H](F)[C@@H]2O1 (stereo in doubt; 12B) | – | – | – | – | – | – | – | 5.90 | 5.58 | – |
| CC(C)OC(=O)OCOP1(=O)/C=C/[C@H]2O[C@@H](n3cnc4c(N)ncnc43)[C@H](F)[C@@H]2OP(=O)(OCOC(=O)OC(C)C)OC[C@H]2O[C@@H](n3cnc4c(N)ncnc43)[C@H](F)[C@@H]2O1 (stereo in doubt; 12C) | – | – | – | – | – | – | – | 7.15 | 6.60 | pEC50 ([10]; Homo sapiens, PBMC): 6.22; pEC50 ([11]; Homo sapiens, PBMC): 6.60; pEC50 ([12]; Homo sapiens, PBMC): 5.89 |
| CCC(C)(C)C(=O)OCOP1(=O)/C=C/[C@H]2O[C@@H](n3cnc4c(N)ncnc43)[C@H](F)[C@@H]2OP(=O)(OCOC(=O)C(C)(C)CC)OC[C@H]2O[C@@H](n3cnc4c(N)ncnc43)[C@H](F)[C@@H]2O1 (stereo in doubt; 13A) | – | – | – | – | – | – | – | 6.82 | 6.35 | – |
| CCC(C)(C)C(=O)OCOP1(=O)/C=C/[C@H]2O[C@@H](n3cnc4c(N)ncnc43)[C@H](F)[C@@H]2OP(=O)(OCOC(=O)C(C)(C)CC)OC[C@H]2O[C@@H](n3cnc4c(N)ncnc43)[C@H](F)[C@@H]2O1 (stereo in doubt; 13B) | – | – | – | – | – | – | – | 7.85 | 7.46 | – |
| CCC(C)(C)C(=O)OCOP1(=O)/C=C/[C@H]2O[C@@H](n3cnc4c(N)ncnc43)[C@H](F)[C@@H]2OP(=O)(OCOC(=O)C(C)(C)CC)OC[C@H]2O[C@@H](n3cnc4c(N)ncnc43)[C@H](F)[C@@H]2O1 (stereo in doubt; 13C) | – | – | – | – | – | – | – | 8.15 | 7.46 | pEC50 ([10]; Homo sapiens, PBMC): 7.22; pEC50 ([11]; Homo sapiens, PBMC): 6.92; pEC50 ([12]; Homo sapiens, PBMC): 7.70; half-life at 5 µM [13]: 4 min; half-life at 5 µM [14]: 86 min |
| CC1(C(=O)OCOP2(=O)/C=C/[C@H]3O[C@@H](n4cnc5c(N)ncnc54)[C@H](F)[C@@H]3OP(=O)(OCOC(=O)C3(C)CCCCC3)OC[C@H]3O[C@@H](n4cnc5c(N)ncnc54)[C@H](F)[C@@H]3O2)CCCCC1 (stereo in doubt; 14A) | – | – | – | – | – | – | – | 6.60 | 6.30 | – |
| CC1(C(=O)OCOP2(=O)/C=C/[C@H]3O[C@@H](n4cnc5c(N)ncnc54)[C@H](F)[C@@H]3OP(=O)(OCOC(=O)C3(C)CCCCC3)OC[C@H]3O[C@@H](n4cnc5c(N)ncnc54)[C@H](F)[C@@H]3O2)CCCCC1 (stereo in doubt; 14B) | – | – | – | – | – | – | – | 7.10 | 6.65 | pEC50 ([10]; pbmc): 6.52; pEC50 ([11]; pbmc): 6.85; pEC50 ([12]; pbmc): 6.60 |
| CCCCCCCC(=O)OCOP1(=O)/C=C/[C@H]2O[C@@H](n3cnc4c(N)ncnc43)[C@H](F)[C@@H]2OP(=O)(OCOC(=O)CCCCCCC)OC[C@H]2O[C@@H](n3cnc4c(N)ncnc43)[C@H](F)[C@@H]2O1 (stereo in doubt; 15C) | – | – | – | – | – | – | – | 8.52 | 8.30 | pEC50 ([10]; pbmc): 6.92; pEC50 ([11]; pbmc): 6.55; pEC50 ([12]; pbmc): 6.77; half-life at 5 µM [13]: 3 min; half-life at 5 µM [14]: 19 min |
| CC(C)(C)C(=O)OCOP1(=O)/C=C/[C@H]2O[C@@H](n3cnc4c(N)ncnc43)C[C@@H]2OP(=O)(OCOC(=O)C(C)(C)C)OC[C@H]2O[C@@H](n3cnc4c(N)ncnc43)[C@H](F)[C@@H]2O1 (stereo in doubt; 24B) | – | – | – | – | – | – | – | 6.17 | 6.26 | – |

Now from value to compound, other results behind:

| pEC50 [1] | pEC50 [2] | pEC50 [3] | ΔTm [4] [°C] | ΔTm [5] [°C] | pEC50 [6] | pEC50 [7] | pEC50 [8] | pEC50 [9] | Compound | further results |
| --- | --- | --- | --- | --- | --- | --- | --- | --- | --- | --- |
| 6.34 | 7.70 | 6.49 | 15.2 | 9.4 | 7.10 | 7.22 | – | – | Nc1nc2c(ncn2[C@@H]2O[C@@H]3/C=C/P(=O)(O)O[C@H]4[C@@H](F)[C@H](n5cnc6c(N)ncnc65)O[C@@H]4COP(=O)(O)O[C@H]3[C@H]2F)c(=O)[nH]1 | – |
| 5.06 | 6.30 | 5.43 | 8.8 | 3.4 | 6.02 | 6.02 | – | – | Nc1nc2c(ncn2[C@@H]2O[C@@H]3/C=C/P(=O)(O)O[C@H]4[C@@H](F)[C@H](n5cnc6c(=O)[nH]c(N)nc65)O[C@@H]4COP(=O)(O)O[C@H]3[C@H]2F)c(=O)[nH]1 | – |
| 5.53 | 6.92 | 5.02 | 11.4 | 5.2 | 6.89 | 6.85 | – | – | Nc1nc2c(ncn2[C@H]2C[C@@H]3OP(=O)(O)/C=C/[C@H]4O[C@@H](n5cnc6c(N)ncnc65)[C@H](F)[C@@H]4OP(=O)(O)OC[C@H]3O2)c(=O)[nH]1 | – |
| < 4.35 | 6.11 | < 4.35 | 8.6 | 1.9 | 6.68 | 6.36 | – | – | Nc1nc2c(ncn2[C@H]2C[C@@H]3OP(=O)(O)OC[C@H]4O[C@@H](n5cnc6c(N)ncnc65)C[C@@H]4OP(=O)(O)/C=C/[C@H]3O2)c(=O)[nH]1 | – |
| – | – | – | – | – | – | – | 7.66 | 7.52 | CC(C)(C)C(=O)OCOP1(=O)/C=C/[C@H]2O[C@@H](n3cnc4c(N)ncnc43)[C@H](F)[C@@H]2OP(=O)(OCOC(=O)C(C)(C)C)OC[C@H]2O[C@@H](n3cnc4c(N)ncnc43)[C@H](F)[C@@H]2O1 (stereo in doubt; 11B) | pEC50 ([10]; pbmc): 6.46; pEC50 ([11]; pbmc): 6.48; pEC50 ([12]; pbmc): 6.12 |
| – | – | – | – | – | – | – | 7.70 | 6.46 | CCCCCCCC(=O)OCOP1(=O)/C=C/[C@H]2O[C@@H](n3cnc4c(N)ncnc43)[C@H](F)[C@@H]2OP(=O)(OCOC(=O)CCCCCCC)OC[C@H]2O[C@@H](n3cnc4c(N)ncnc43)[C@H](F)[C@@H]2O1 (stereo in doubt; 15A) | – |
| – | – | – | – | – | – | – | 8.52 | 8.40 | CCCCCCCC(=O)OCOP1(=O)/C=C/[C@H]2O[C@@H](n3cnc4c(N)ncnc43)[C@H](F)[C@@H]2OP(=O)(OCOC(=O)CCCCCCC)OC[C@H]2O[C@@H](n3cnc4c(N)ncnc43)[C@H](F)[C@@H]2O1 (stereo in doubt; 15B) | pEC50 ([10]; Homo sapiens, PBMC): 7.10; pEC50 ([11]; pbmc): 7.15; pEC50 ([12]; pbmc): 7.22 |
| – | – | – | – | – | – | – | 4.92 | 5.00 | CC(C)(C)C(=O)OCOP1(=O)/C=C/[C@H]2O[C@@H](n3cnc4c(N)ncnc43)C[C@@H]2OP(=O)(OCOC(=O)C(C)(C)C)OC[C@H]2O[C@@H](n3cnc4c(N)ncnc43)[C@H](F)[C@@H]2O1 (stereo in doubt; 24A) | – |
| – | – | – | – | – | – | – | 6.59 | 6.68 | CC(C)(C)C(=O)OCOP1(=O)/C=C/[C@H]2O[C@@H](n3cnc4c(N)ncnc43)C[C@@H]2OP(=O)(OCOC(=O)C(C)(C)C)OC[C@H]2O[C@@H](n3cnc4c(N)ncnc43)[C@H](F)[C@@H]2O1 (stereo in doubt; 24C) | – |

— ChEMBL document CHEMBL5625225, “Vinylphosphonate-based cyclic dinucleotides enhance STING-mediated cancer immunotherapy” (Eur J Med Chem, 2023)
